Assays:
Hexokinase-4 = target: T1, Hexokinase-4 (Homo sapiens, UniProt P35557); assay: Inhibition of fluorescein-labeled human GK interaction with biotin-labeled human GKRP compound incubated for 20 mins prior to addition of fluorescein-labeled GK measured after 2 to 4 hrs by AlphaScreen assay
T1 sequence (P35557 whole entry): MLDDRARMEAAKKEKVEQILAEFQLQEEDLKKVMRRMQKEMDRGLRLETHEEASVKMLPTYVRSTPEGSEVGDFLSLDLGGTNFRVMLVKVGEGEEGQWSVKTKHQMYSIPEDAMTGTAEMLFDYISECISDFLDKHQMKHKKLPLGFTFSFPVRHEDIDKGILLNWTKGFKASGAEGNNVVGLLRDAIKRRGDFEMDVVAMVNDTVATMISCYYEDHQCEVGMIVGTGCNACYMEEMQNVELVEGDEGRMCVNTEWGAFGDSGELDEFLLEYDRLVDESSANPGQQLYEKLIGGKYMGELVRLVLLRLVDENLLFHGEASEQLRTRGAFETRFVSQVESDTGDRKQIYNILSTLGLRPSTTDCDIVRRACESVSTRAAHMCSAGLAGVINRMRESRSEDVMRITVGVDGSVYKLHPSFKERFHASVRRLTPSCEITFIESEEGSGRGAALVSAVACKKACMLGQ

[1] = Intrinsic clearance in human liver microsomes at 1 uM after 30 mins in presence of NADPH; type: ADME; conditions: read-out: CLH
[2] = Intrinsic clearance in rat liver microsomes at 1 uM after 30 mins in presence of NADPH; type: ADME; conditions: read-out: CLH

SMILES	IC50 (Hexokinase-4)	microsomal CLint at 1 µM [1]	microsomal CLint at 1 µM [2]
Nc1ccc(S(=O)(=O)N2CCN(c3ncc(C(O)(C(F)(F)F)C(F)(F)F)cc3-c3ccoc3)CC2)cn1	19 nM	< 14 µL/min/mg	57 µL/min/mg
Nc1ccc(S(=O)(=O)N2CCN(c3ncc(C(O)(C(F)(F)F)C(F)(F)F)cc3Br)CC2)cn1	112 nM	< 14 µL/min/mg	32 µL/min/mg
Nc1ccc(S(=O)(=O)N2CCN(c3ncc(C(O)(C(F)(F)F)C(F)(F)F)cc3-c3ccccc3F)CC2)cn1	7 nM	< 14 µL/min/mg	47 µL/min/mg
CC(C)(C)n1cc(-c2cc(C(O)(C(F)(F)F)C(F)(F)F)cnc2N2CCN(S(=O)(=O)c3ccc(N)nc3)CC2)cn1	87 nM	86 µL/min/mg	459 µL/min/mg
Nc1ccc(S(=O)(=O)N2CCN(c3ncc(C(O)(C(F)(F)F)C(F)(F)F)cc3-c3cccc(F)c3)CC2)cn1	8 nM	25 µL/min/mg	52 µL/min/mg
Cn1cc(-c2cc(C(O)(C(F)(F)F)C(F)(F)F)cnc2N2CCN(S(=O)(=O)c3ccc(N)nc3)CC2)c(C(F)(F)F)n1	30000 nM	50 µL/min/mg	121 µL/min/mg
Cc1c(-c2cc(C(O)(C(F)(F)F)C(F)(F)F)cnc2N2CCN(S(=O)(=O)c3ccc(N)nc3)CC2)cnn1C	40 nM	28 µL/min/mg	88 µL/min/mg
Cc1cncc(-c2cc(C(O)(C(F)(F)F)C(F)(F)F)cnc2N2CCN(S(=O)(=O)c3ccc(N)nc3)CC2)c1	29 nM	37 µL/min/mg	259 µL/min/mg
Nc1ccc(S(=O)(=O)N2CCN(c3ncc(C(O)(C(F)(F)F)C(F)(F)F)cc3-c3cc[nH]n3)CC2)cn1	201 nM	< 14 µL/min/mg	20 µL/min/mg
COCC#Cc1cc(C(O)(C(F)(F)F)C(F)(F)F)cnc1N1CCN(S(=O)(=O)c2ccc(N)nc2)CC1	5 nM	15 µL/min/mg	399 µL/min/mg
Cc1csc(-c2cc(C(O)(C(F)(F)F)C(F)(F)F)cnc2N2CCN(S(=O)(=O)c3ccc(N)nc3)CC2)c1	5 nM	29 µL/min/mg	399 µL/min/mg
Nc1ccc(S(=O)(=O)N2CCN(c3ccc(C(O)(C(F)(F)F)C(F)(F)F)cn3)CC2)cn1	176 nM	< 14 µL/min/mg	< 14 µL/min/mg
Nc1ccc(S(=O)(=O)N2CCN(c3ncc(C(O)(C(F)(F)F)C(F)(F)F)cc3C#CCCO)CC2)cn1	17 nM	< 14 µL/min/mg	68 µL/min/mg
Nc1ccc(S(=O)(=O)N2CCN(c3ncc(C(O)(C(F)(F)F)C(F)(F)F)cc3-c3ccc4ocnc4c3)CC2)cn1	20 nM	< 14 µL/min/mg	120 µL/min/mg
Nc1ccc(S(=O)(=O)N2CCN(c3ncc(C(O)(C(F)(F)F)C(F)(F)F)cc3-c3cccc4[nH]ncc34)CC2)cn1	1950 nM	42 µL/min/mg	93 µL/min/mg
Nc1ccc(S(=O)(=O)N2CCN(c3ncc(C(O)(C(F)(F)F)C(F)(F)F)cc3C#CC3CC3)CC2)cn1	33 nM	< 14 µL/min/mg	67 µL/min/mg
Nc1ccc(S(=O)(=O)N2CCN(c3ncc(C(O)(C(F)(F)F)C(F)(F)F)cc3-c3ccc4[nH]ncc4c3)CC2)cn1	60 nM	27 µL/min/mg	88 µL/min/mg
Cc1nc2cc(-c3cc(C(O)(C(F)(F)F)C(F)(F)F)cnc3N3CCN(S(=O)(=O)c4ccc(N)nc4)CC3)ccc2o1	15 nM	< 14 µL/min/mg	99 µL/min/mg
Nc1ccc(S(=O)(=O)N2CCN(c3ncc(C(O)(C(F)(F)F)C(F)(F)F)cc3-c3cncc(F)c3)CC2)cn1	11 nM	24 µL/min/mg	19 µL/min/mg

Other lines, results leading:

IC50 (Hexokinase-4)	microsomal CLint at 1 µM [1]	microsomal CLint at 1 µM [2]	SMILES
16 nM	25 µL/min/mg	265 µL/min/mg	COc1ccc(-c2cc(C(O)(C(F)(F)F)C(F)(F)F)cnc2N2CCN(S(=O)(=O)c3ccc(N)nc3)CC2)cn1
6 nM	22 µL/min/mg	125 µL/min/mg	Nc1ccc(S(=O)(=O)N2CCN(c3ncc(C(O)(C(F)(F)F)C(F)(F)F)cc3-c3ccccc3O)CC2)cn1
33 nM	< 14 µL/min/mg	119 µL/min/mg	Nc1ccc(S(=O)(=O)N2CCN(c3ncc(C(O)(C(F)(F)F)C(F)(F)F)cc3-c3ccc4c(c3)CC(=O)N4)CC2)cn1
201 nM	< 14 µL/min/mg	26 µL/min/mg	Nc1ccc(S(=O)(=O)N2CCN(c3ncc(C(O)(C(F)(F)F)C(F)(F)F)cc3Cl)CC2)cn1
42 nM	32 µL/min/mg	103 µL/min/mg	CS(=O)(=O)c1ccc(-c2cc(C(O)(C(F)(F)F)C(F)(F)F)cnc2N2CCN(S(=O)(=O)c3ccc(N)nc3)CC2)cc1
1110 nM	< 14 µL/min/mg	< 14 µL/min/mg	COc1cc(C(O)(C(F)(F)F)C(F)(F)F)cnc1N1CCN(S(=O)(=O)c2ccc(N)nc2)CC1
50 nM	17 µL/min/mg	63 µL/min/mg	NC(=O)c1cccc(-c2cc(C(O)(C(F)(F)F)C(F)(F)F)cnc2N2CCN(S(=O)(=O)c3ccc(N)nc3)CC2)c1
5 nM	20 µL/min/mg	194 µL/min/mg	CCn1cc(-c2cc(C(O)(C(F)(F)F)C(F)(F)F)cnc2N2CCN(S(=O)(=O)c3ccc(N)nc3)CC2)cn1
47 nM	48 µL/min/mg	487 µL/min/mg	Nc1ccc(S(=O)(=O)N2CCN(c3ncc(C(O)(C(F)(F)F)C(F)(F)F)cc3-c3ccc4sccc4c3)CC2)cn1
24 nM	17 µL/min/mg	22 µL/min/mg	Nc1ccc(S(=O)(=O)N2CCN(c3ncc(C(O)(C(F)(F)F)C(F)(F)F)cc3-c3cnccc3F)CC2)cn1
11 nM	< 14 µL/min/mg	40 µL/min/mg	Nc1ccc(S(=O)(=O)N2CCN(c3ncc(C(O)(C(F)(F)F)C(F)(F)F)cc3-c3ccc(F)cc3)CC2)cn1
14 nM	< 14 µL/min/mg	65 µL/min/mg	Nc1ccc(S(=O)(=O)N2CCN(c3ncc(C(O)(C(F)(F)F)C(F)(F)F)cc3C#CCO)CC2)cn1
23 nM	38 µL/min/mg	198 µL/min/mg	CC(C)n1cc(-c2cc(C(O)(C(F)(F)F)C(F)(F)F)cnc2N2CCN(S(=O)(=O)c3ccc(N)nc3)CC2)cn1
309 nM	40 µL/min/mg	81 µL/min/mg	CS(=O)(=O)Nc1cccc(-c2cc(C(O)(C(F)(F)F)C(F)(F)F)cnc2N2CCN(S(=O)(=O)c3ccc(N)nc3)CC2)c1
17 nM	44 µL/min/mg	58 µL/min/mg	COc1cncc(-c2cc(C(O)(C(F)(F)F)C(F)(F)F)cnc2N2CCN(S(=O)(=O)c3ccc(N)nc3)CC2)c1
35 nM	39 µL/min/mg	147 µL/min/mg	Nc1ccc(S(=O)(=O)N2CCN(c3ncc(C(O)(C(F)(F)F)C(F)(F)F)cc3-c3ccc4scnc4c3)CC2)cn1
7 nM	< 14 µL/min/mg	49 µL/min/mg	Nc1ccc(S(=O)(=O)N2CCN(c3ncc(C(O)(C(F)(F)F)C(F)(F)F)cc3-c3ccccc3)CC2)cn1
49 nM	< 14 µL/min/mg	16 µL/min/mg	CC(C)(O)C#Cc1cc(C(O)(C(F)(F)F)C(F)(F)F)cnc1N1CCN(S(=O)(=O)c2ccc(N)nc2)CC1
21 nM	15 µL/min/mg	31 µL/min/mg	Nc1ccc(S(=O)(=O)N2CCN(c3ncc(C(O)(C(F)(F)F)C(F)(F)F)cc3-c3ccncc3)CC2)cn1
40 nM	43 µL/min/mg	182 µL/min/mg	Cc1ccc(-c2cc(C(O)(C(F)(F)F)C(F)(F)F)cnc2N2CCN(S(=O)(=O)c3ccc(N)nc3)CC2)cn1
601 nM	38 µL/min/mg	27 µL/min/mg	Nc1ccc(S(=O)(=O)N2CCN(c3ncc(C(O)(C(F)(F)F)C(F)(F)F)cc3C3CC3)CC2)cn1
48 nM	< 14 µL/min/mg	315 µL/min/mg	Nc1ccc(S(=O)(=O)N2CCN(c3ncc(C(O)(C(F)(F)F)C(F)(F)F)cc3-c3cc4ccccc4s3)CC2)cn1
27 nM	< 14 µL/min/mg	146 µL/min/mg	Nc1ccc(S(=O)(=O)N2CCN(c3ncc(C(O)(C(F)(F)F)C(F)(F)F)cc3-c3cc4ccccc4[nH]3)CC2)cn1
20 nM	15 µL/min/mg	221 µL/min/mg	CN1C(=O)Cc2cc(-c3cc(C(O)(C(F)(F)F)C(F)(F)F)cnc3N3CCN(S(=O)(=O)c4ccc(N)nc4)CC3)ccc21
